The source made the active and inactive calls. No cut-off for these calls is given here.
Key:
Staphylococcus aureus = experiment: Antibacterial activity against Staphylococcus aureus ATCC 25923 assessed as inhibition of bacterial growth at 45.4 uM; format: functional, organism-based
Micrococcus luteus [1] = experiment: Antibacterial activity against Micrococcus luteus KCTC 1915 assessed as inhibition of bacterial growth at 72.6 uM; format: functional, organism-based
HEK293 = experiment: Cytotoxicity against HEK293 cells assessed as reduction in cell proliferation at 1.25 to 80 uM measured after 48 hrs by MTS assay; format: toxicity, cell-based; settings: human, hek293, 48 h, dose 1.25-80 µM
Micrococcus luteus [2] = experiment: Antibacterial activity against Micrococcus luteus KCTC 1915 assessed as inhibition of bacterial growth at 75 uM; format: functional, organism-based

SMILES	inhibition (Staphylococcus aureus)	inhibition (Micrococcus luteus [1])	Activity (HEK293)	inhibition (Micrococcus luteus [2])
C=C(C)[C@@]1(CC/C(C)=C/CCCc2ccc(CC(=O)O)c[n+]2C[C@@H](C)CC)CCC[C@H]1C	Active	Active	Non-Toxic	
C=C(C)[C@@]1(CC/C(C)=C/CCCc2ccc(CC(=O)O)c[n+]2CC(C)C)CCC[C@H]1C			Non-Toxic	Active
CC(C)=CCC/C(C)=C/CC/C(C)=C/CCCc1ccc(CC(=O)O)c[n+]1CC(=O)O			Non-Toxic	
CC1=C(CC/C(C)=C/CCCc2ccc(CC(=O)O)c[n+]2CCS(=O)(=O)O)C(C)(C)CCC1			Non-Toxic	
